Read-outs that look alike come from different tables or passages of the source.
How the values were obtained:
Type in all cases: cell-based
AsPC-1 (K-Ras G12D) [1] = test: Potency assay: pERK in AsPC-1 cells; settings: Homo sapiens
NCI-H358 (K-Ras G12C) = test: CellTiter-Glo cell viability assay, H358; settings: Homo sapiens, NCI-H358, 120 h
In short: (§1)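 Luminescent viability readout on day 5, plates first brought to room temperature for ~30 min; compounds added straight to plated RAS-mutant cells. Values expressed as percent of mean DMSO signal, curves fitted with a four-parameter logistic model.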

AsPC-1 (K-Ras G12D) [2] = test: CellTiter-Glo cell viability assay, AsPC-1; settings: Homo sapiens, ASPC1, 120 h
In short: as §1

[3] = ASPC1, read-out: pERK EC50 (AsPC-1 KRAS G12D)
[4] = read-out: H358 Cell Viability IC50, NCI-H358, K-Ras G12C, 5-day treatment
[5] = read-out: AsPC-1 Cell Viability IC50, AsPC-1, K-Ras G12D, 5-day treatment
[6] = ASPC1, AsPC-1 cells, K-Ras G12D, read-out: pERK EC50 (AsPC-1 KRAS G12D)
[7] = NCI-H358, K-Ras G12C, 5-day treatment, read-out: H358 Cell Viability IC50
[8] = AsPC-1, K-Ras G12D, 5-day treatment, read-out: AsPC-1 Cell Viability IC50

SMILES	EC50 (AsPC-1 (K-Ras G12D) [1]; [3]) [µM]	IC50 (NCI-H358 (K-Ras G12C); read-out: H358 Cell Viability IC50) [µM]	IC50 (AsPC-1 (K-Ras G12D) [2]; read-out: AsPC-1 Cell Viability IC50) [µM]	IC50 (NCI-H358 (K-Ras G12C); [4]) [µM]	IC50 (AsPC-1 (K-Ras G12D) [2]; [5]) [µM]	EC50 (AsPC-1 (K-Ras G12D) [1]; [6]) [µM]	IC50 (NCI-H358 (K-Ras G12C); [7]) [µM]	IC50 (AsPC-1 (K-Ras G12D) [2]; [8]) [µM]
CCn1c(-c2cnccc2COC)c2c3cc(ccc31)-c1cc(O)cc(c1)C[C@H](NC(=O)[C@H](C(C)C)N(C)C(=O)CN(C)C(=O)[C@H]1[C@@H](C(=O)OC)N1[S@+]([O-])C(C)(C)C)C(=O)N1CCC[C@H](N1)C(=O)OCC(C)(C)C2 (stereo partly drawn) [Example 48, methyl (2S,3R)-1-((R)-tert-butylsulfinyl)-3-((2-(((2S)-1-(((6^3S,4S)-1^1-ethyl-2^5-hydroxy-1^2-(4-(methoxymethyl)pyridin-3-yl)-10,10-dimethyl-5,7-dioxo-6^1,6^2,6^3,6^4,6^5,6^6-hexahydro-1^1H-8-oxa-1(5,3)-indola-6(1,3)-pyridazina-2(1,3)-benzenacycloundecaphane-4-yl)amino)-3-methyl-1-oxobutan-2-yl)(methyl)amino)-2-oxoethyl)(methyl)carbamoyl)aziridine-2-carboxylate]	< 5	0.1 to 1	1 to 10					
CCn1c(-c2cnccc2COC)c2c3cc(ccc31)-c1cc(O)cc(c1)C[C@H](NC(=O)[C@H](C(C)C)N(C)C(=O)CN(C)C(=O)[C@@H]1N[C@@H]1C(=O)OC)C(=O)N1CCC[C@H](N1)C(=O)OCC(C)(C)C2 [Example 49, methyl (2S,3R)-3-((2-(((2S)-1-(((6^3S,4S)-1^1-ethyl-2^5-hydroxy-1^2-(4-(methoxymethyl)pyridin-3-yl)-10,10-dimethyl-5,7-dioxo-6^1,6^2,6^3,6^4,6^5,6^6-hexahydro-1^1H-8-oxa-1(5,3)-indola-6(1,3)-pyridazina-2(1,3)-benzenacycloundecaphane-4-yl)amino)-3-methyl-1-oxobutan-2-yl)(methyl)amino)-2-oxoethyl)(methyl)carbamoyl)aziridine-2-carboxylate]	< 5			1 to 10	1 to 10			
CCn1c(-c2cccnc2[C@H](C)OC)c2c3cc(ccc31)-c1cc(O)cc(c1)C[C@H](NC(=O)[C@H](C1CCCC1)N(C)C(=O)CN(C)C(=O)[C@H]1CN1)C(=O)N1CCC[C@H](N1)C(=O)OCC(C)(C)C2 [Example 95, (2R)—N-(2-(((1S)-1-cyclopentyl-2-(((6^3S,4S)-1^1-ethyl-2^5-hydroxy-1^2-(2-((S)-1-methoxyethyl)pyridin-3-yl)-10,10-dimethyl-5,7-dioxo-6^1,6^2,6^3,6^4,6^5,6^6-hexahydro-1^1H-8-oxa-1(5,3)-indola-6(1,3)-pyridazina-2(1,3)-benzenacycloundecaphane-4-yl)amino)-2-oxoethyl)(methyl)amino)-2-oxoethyl)-N-methylaziridine-2-carboxamide]	< 5			< 0.01	0.01 to 0.1			
CCn1c(-c2cccnc2[C@H](C)OC)c2c3cc(ccc31)-c1cc(O)cc(c1)C[C@H](NC(=O)[C@H](C(C)C)N(C)C(=O)CN(C)C(=O)[C@@H]1N[C@@H]1C1CC1)C(=O)N1CCC[C@H](N1)C(=O)OCC(C)(C)C2 [Example 133, (2R,3R)-3-cyclopropyl-N-(2-(((2S)-1-(((6^3S,4S)-1^1-ethyl-2^5-hydroxy-1^2-(2-((S)-1-methoxyethyl)pyridin-3-yl)-10,10-dimethyl-5,7-dioxo-6^1,6^2,6^3,6^4,6^5,6^6-hexahydro-1^1H-8-oxa-1(5,3)-indola-6(1,3)-pyridazina-2(1,3)-benzenacycloundecaphane-4-yl)amino)-3-methyl-1-oxobutan-2-yl)(methyl)amino)-2-oxoethyl)-N-methylaziridine-2-carboxamide]	< 5			0.01 to 0.1	0.01 to 0.1			
CCn1c(-c2cccnc2[C@H](C)OC)c2c3cc(ccc31)-c1cc(O)cc(c1)C[C@H](NC(=O)[C@H](C1CCCC1)N1CC[C@]3(CCN(C(=O)[C@H]4CN4)C3)C1=O)C(=O)N1CCC[C@H](N1)C(=O)OCC(C)(C)C2 [Example 175, (2S)-2-((S)-7-((R)-aziridine-2-carbonyl)-1-oxo-2,7-diazaspiro[4.4]nonan-2-yl)-2-cyclopentyl-N-((6^3S,4S)-1^1-ethyl-2^5-hydroxy-1^2-(2-((S)-1-methoxyethyl)pyridin-3-yl)-10,10-dimethyl-5,7-dioxo-6^1,6^2,6^3,6^4,6^5,6^6-hexahydro-1^1H-8-oxa-1(5,3)-indola-6(1,3)-pyridazina-2(1,3)-benzenacycloundecaphane-4-yl)acetamide]						< 5	< 0.01	0.01 to 0.1
CCn1c(-c2cc(N3CCN(C)CC3)cnc2[C@H](C)OC)c2c3cc(ccc31)-c1cc(O)cc(c1)C[C@H](NC(=O)[C@H](C1CCCC1)N(C)C(=O)CN(C)C(=O)[C@H]1CN1)C(=O)N1CCC[C@H](N1)C(=O)OCC(C)(C)C2 [Example 209, (2R)—N-(2-(((1S)-1-cyclopentyl-2-(((6^3S,4S)-1^1-ethyl-2^5-hydroxy-1^2-(2-((S)-1-methoxyethyl)-5-(4-methylpiperazin-1-yl)pyridin-3-yl)-10,10-dimethyl-5,7-dioxo-6^1,6^2,6^3,6^4,6^5,6^6-hexahydro-1^1H-8-oxa-1(5,3)-indola-6(1,3)-pyridazina-2(1,3)-benzenacycloundecaphane-4-yl)amino)-2-oxoethyl)(methyl)amino)-2-oxoethyl)-N-methylaziridine-2-carboxamide]	< 5			< 0.01	< 0.01			
CCn1c(-c2cccnc2[C@H](C)OC)c2c3cc(ccc31)-c1cc(O)cc(c1)C[C@H](NC(=O)[C@H](C1CCCC1)N1CC[C@]3(CCN(C(=O)[C@@H]4N[C@@H]4C4CC4)C3)C1=O)C(=O)N1CCC[C@H](N1)C(=O)OCC(C)(C)C2 [Example 214, (2S)-2-cyclopentyl-2-((S)-7-((2R,3R)-3-cyclopropylaziridine-2-carbonyl)-1-oxo-2,7-diazaspiro[4.4]nonan-2-yl)-N-((6^3S,4S)-1^1-ethyl-2^5-hydroxy-1^2-(2-((S)-1-methoxyethyl)pyridin-3-yl)-10,10-dimethyl-5,7-dioxo-6^1,6^2,6^3,6^4,6^5,6^6-hexahydro-1^1H-8-oxa-1(5,3)-indola-6(1,3)-pyridazina-2(1,3)-benzenacycloundecaphane-4-yl)acetamide]						< 5	0.01 to 0.1	0.01 to 0.1

Reference: patent US11739074B2, “Ras inhibitors” (Revolution Medicines, Inc., priority 2019, dated 2023)
